Read-outs that look alike come from different tables or passages of the source.
Experiments:
SIRT1 = target: T1, SIRT1 (Homo sapiens, UniProt Q96EB6); assay: cell-free, isoform selective HDAC enzyme assay, SIRT1; type: biochemical; settings: HDAC Class III; read-out: IC50 Inhibition, SIRT1
T1 sequence (Q96EB6 1-747): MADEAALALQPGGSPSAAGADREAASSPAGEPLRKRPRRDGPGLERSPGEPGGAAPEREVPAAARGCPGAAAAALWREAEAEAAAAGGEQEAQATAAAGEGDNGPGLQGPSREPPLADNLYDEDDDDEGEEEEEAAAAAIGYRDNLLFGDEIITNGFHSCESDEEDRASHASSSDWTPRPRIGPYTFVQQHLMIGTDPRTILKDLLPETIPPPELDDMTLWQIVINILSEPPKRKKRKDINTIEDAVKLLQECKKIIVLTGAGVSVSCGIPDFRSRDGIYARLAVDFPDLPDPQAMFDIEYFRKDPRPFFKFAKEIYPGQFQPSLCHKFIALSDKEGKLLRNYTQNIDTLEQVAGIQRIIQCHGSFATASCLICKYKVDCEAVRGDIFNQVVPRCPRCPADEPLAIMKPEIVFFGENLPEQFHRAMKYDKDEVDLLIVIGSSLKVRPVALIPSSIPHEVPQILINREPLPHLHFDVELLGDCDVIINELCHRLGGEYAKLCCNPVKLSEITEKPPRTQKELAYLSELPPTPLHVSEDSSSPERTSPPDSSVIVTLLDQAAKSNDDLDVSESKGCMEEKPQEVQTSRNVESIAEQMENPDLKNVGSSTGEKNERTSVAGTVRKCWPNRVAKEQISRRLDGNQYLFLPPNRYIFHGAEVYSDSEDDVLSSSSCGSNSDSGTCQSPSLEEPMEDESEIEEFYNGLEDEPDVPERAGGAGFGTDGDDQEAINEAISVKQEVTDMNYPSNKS
Protocol: The following pharmaceutically active compounds, all of which are taught in the prior art, were assessed for the inhibition of various HDAC subtypes the preceding cell-free, isoform selective HDAC enzyme assays: […]

HDAC4 = HDAC4 (Homo sapiens, UniProt P56524); assay: cell-free, isoform selective HDAC enzyme assay, HDAC4; type: biochemical; settings: HDAC Class IIa; read-out: IC50 Inhibition, HDAC4
human HDAC8 enzyme = target: T2, human HDAC8 enzyme (Homo sapiens, UniProt Q9BY41); assay: HDAC8 assay (Fluor-de-Lys-HDAC8 fluorescence); type: biochemical
T2 construct: full length (starting from amino acid 1 to 377+ linker IEGRGS+6 His); made in house; host or cells: E. coli BL21 codon plus
T2 sequence (Q9BY41 1-377): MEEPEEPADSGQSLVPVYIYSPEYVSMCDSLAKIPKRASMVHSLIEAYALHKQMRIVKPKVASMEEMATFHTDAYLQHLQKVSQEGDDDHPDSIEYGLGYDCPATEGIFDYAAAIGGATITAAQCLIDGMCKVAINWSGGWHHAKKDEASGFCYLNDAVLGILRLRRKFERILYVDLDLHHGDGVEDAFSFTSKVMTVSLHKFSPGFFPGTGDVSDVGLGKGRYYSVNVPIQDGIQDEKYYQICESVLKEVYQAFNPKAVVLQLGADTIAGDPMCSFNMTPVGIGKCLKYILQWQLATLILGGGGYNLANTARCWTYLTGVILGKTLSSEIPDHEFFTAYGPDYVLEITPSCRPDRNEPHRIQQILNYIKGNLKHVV
Protocol: The HDAC8 assay is used to measure inhibitory activity of compounds against the human HDAC8 enzyme. The assay may be performed in 96 well or 384 well microtiter plates by pre-incubating serial dilutions of compounds with a fixed concentration of HDAC8 enzyme and then adding a diacetylated peptide-containing substrate/developer that fluoresces upon deacetylation. The deacetylase reaction is performed at 37° C. for 60 min and stopped by addition of the developer solution.
Reagents of the HDAC Fluorescent Activity Assay are purchased from BioMol Research Laboratories (Plymouth Meeting, Pa.), and include the Fluor-de-Lys™-HDAC8 Substrate/DeveloperII System. The reagents include the fluorescent substrate as a 5 mM stock solution, the and the DeveloperII Concentrate.
TSA is provided as a 10 mM stock solution in 100% DMSO.
The final concentration in the assay is 70 μM.
Test compounds are prepared as a 10×5% DMSO solution in distilled water. The final DMSO concentration in the reaction is 0.5%.
The experiment is performed in a 96-well microplate (Matrix Screenmates white), 50 ul volume, according to the following steps:
1) Add 5 ul of DMSO/compound solution
2) Add 40 ul of HDAC8 enzyme in assay buffer
4) Start the reaction by adding 5 ul of the 1 mM Substrate Solution
5) Incubate 1 h at 37° C. […]
8) Measure the fluorescence at Ex.360 nM and Em.460 nM […]

[1] = target: T3, recombinant human HDAC1 enzyme (Homo sapiens, UniProt Q13547); assay: HDAC1 assay (Fluor-de-Lys fluorescence); type: biochemical; settings: HDAC Class I; read-out: IC50 Inhibition, HDAC1
T3 construct: made in house; host or cells: mammalian cells
Protocol: (§1) The final concentration in the assay is 20 μM.
The HDAC1 enzyme is diluted in assay buffer prior to each use from a fresh aliquot of enzyme.
(§2) The final concentration in the assay is 1-2 nM.

[2] = target: T4, recombinant human HDAC3 enzyme (HDAC3(DAD) enzyme complex) (Homo sapiens, UniProt O15379); assay: HDAC3 assay (Fluor-de-Lys fluorescence); type: biochemical; settings: HDAC Class I; read-out: IC50 Inhibition, HDAC3
T4 construct: made in house; host or cells: mammalian cells
Protocol: as §1, §2

HDAC6 = target: T5, HDAC6 (Homo sapiens, UniProt Q9UBN7); assay: cell-free, isoform selective HDAC enzyme assay, HDAC6; type: biochemical
T5 sequence (Q9UBN7 1-1215): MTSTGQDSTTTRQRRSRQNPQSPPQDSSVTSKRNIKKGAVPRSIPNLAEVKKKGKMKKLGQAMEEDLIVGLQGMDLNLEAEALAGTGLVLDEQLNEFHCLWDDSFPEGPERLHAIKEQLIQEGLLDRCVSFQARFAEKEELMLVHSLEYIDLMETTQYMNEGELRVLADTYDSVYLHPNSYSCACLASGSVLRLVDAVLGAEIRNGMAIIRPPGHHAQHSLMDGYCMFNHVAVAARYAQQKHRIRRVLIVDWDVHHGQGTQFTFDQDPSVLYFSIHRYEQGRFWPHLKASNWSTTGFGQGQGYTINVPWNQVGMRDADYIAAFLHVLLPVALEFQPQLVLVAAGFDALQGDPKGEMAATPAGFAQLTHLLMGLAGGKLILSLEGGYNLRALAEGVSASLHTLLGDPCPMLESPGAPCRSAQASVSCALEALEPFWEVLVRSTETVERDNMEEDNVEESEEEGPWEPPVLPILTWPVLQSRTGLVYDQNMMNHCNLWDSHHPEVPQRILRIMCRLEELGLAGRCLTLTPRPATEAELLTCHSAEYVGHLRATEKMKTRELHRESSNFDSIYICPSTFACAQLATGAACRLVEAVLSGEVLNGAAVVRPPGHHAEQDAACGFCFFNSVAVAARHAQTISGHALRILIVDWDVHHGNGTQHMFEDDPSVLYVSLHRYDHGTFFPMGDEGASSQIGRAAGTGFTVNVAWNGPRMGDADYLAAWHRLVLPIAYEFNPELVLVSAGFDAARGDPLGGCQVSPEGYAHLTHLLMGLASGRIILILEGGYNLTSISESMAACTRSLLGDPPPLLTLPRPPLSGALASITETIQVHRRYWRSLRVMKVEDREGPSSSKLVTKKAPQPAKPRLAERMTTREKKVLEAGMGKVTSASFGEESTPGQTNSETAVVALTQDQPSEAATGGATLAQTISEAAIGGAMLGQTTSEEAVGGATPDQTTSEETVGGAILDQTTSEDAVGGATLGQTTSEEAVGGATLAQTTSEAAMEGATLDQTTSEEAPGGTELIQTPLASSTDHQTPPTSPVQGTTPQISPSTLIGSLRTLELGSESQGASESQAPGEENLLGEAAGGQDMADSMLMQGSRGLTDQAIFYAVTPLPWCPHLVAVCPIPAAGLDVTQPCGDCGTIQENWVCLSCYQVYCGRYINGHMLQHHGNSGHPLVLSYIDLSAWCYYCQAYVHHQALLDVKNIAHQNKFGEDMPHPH

[3] = system: acetylated histones in the brain; settings: see WO2003083067; cited from earlier work

Sequence of HDAC4 (P56524 whole entry, species assumed, canonical isoform): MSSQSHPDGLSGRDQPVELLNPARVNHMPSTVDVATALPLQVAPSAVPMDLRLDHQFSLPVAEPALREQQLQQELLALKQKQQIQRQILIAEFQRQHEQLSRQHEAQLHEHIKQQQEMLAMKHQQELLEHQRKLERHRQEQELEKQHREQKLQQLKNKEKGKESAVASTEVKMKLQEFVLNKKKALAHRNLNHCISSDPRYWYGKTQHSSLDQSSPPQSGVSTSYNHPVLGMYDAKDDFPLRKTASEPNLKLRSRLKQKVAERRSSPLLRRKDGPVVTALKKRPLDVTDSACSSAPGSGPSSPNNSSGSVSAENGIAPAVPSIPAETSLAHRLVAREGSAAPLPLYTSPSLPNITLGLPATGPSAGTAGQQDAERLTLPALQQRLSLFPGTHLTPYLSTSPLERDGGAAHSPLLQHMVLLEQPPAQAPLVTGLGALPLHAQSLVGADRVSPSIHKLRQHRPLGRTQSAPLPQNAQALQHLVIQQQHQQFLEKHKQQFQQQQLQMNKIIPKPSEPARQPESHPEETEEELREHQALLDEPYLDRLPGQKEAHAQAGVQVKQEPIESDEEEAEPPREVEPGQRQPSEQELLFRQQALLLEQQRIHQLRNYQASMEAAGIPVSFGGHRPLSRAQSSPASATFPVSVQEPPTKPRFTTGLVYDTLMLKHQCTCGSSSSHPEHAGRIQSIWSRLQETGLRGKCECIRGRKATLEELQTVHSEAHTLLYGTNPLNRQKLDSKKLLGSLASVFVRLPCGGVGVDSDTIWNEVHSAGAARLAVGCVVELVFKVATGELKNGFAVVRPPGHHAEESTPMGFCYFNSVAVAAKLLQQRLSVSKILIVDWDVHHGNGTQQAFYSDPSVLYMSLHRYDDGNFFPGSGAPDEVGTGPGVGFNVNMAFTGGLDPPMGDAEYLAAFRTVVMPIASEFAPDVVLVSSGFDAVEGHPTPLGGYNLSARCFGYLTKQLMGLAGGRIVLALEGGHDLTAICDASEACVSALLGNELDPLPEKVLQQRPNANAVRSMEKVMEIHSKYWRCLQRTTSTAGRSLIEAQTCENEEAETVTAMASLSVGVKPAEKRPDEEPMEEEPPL
T4 sequence (O15379 whole entry): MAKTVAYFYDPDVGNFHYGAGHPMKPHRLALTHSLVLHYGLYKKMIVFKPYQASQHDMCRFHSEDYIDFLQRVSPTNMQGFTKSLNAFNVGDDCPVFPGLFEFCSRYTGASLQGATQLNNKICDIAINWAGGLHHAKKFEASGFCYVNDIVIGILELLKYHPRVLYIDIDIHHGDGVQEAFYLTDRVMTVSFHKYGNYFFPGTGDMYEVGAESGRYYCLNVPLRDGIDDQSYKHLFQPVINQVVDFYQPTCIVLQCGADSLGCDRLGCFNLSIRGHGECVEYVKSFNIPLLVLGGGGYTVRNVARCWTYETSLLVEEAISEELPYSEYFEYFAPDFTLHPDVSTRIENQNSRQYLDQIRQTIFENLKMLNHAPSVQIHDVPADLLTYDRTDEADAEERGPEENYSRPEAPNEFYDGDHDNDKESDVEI
T4 sequence (Q9Y618 389-480 partner limits assumed): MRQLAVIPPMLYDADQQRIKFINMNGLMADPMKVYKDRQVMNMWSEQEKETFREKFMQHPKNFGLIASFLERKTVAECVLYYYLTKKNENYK
T3 sequence (Q13547 whole entry): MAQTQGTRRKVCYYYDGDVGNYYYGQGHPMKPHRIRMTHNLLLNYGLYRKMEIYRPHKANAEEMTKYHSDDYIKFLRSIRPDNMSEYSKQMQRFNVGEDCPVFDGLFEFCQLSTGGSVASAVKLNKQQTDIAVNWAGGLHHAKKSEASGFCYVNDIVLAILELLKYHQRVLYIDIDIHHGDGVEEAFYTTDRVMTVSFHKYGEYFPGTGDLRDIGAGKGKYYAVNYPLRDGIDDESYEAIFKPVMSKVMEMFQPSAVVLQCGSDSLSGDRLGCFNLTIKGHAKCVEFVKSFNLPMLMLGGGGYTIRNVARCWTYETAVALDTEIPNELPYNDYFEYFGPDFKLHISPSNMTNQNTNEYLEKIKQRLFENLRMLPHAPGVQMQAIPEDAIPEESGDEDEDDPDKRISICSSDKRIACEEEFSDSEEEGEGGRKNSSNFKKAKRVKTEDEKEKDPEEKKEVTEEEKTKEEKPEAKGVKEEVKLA

Row | SMILES | IC50 (SIRT1) | IC50 (HDAC4) | potency at HDAC 8 relative to HDAC1 and HDAC3 (human HDAC8 enzyme; HDAC 8 potency similar to HDAC1 and HDAC3) | IC50 (human HDAC8 enzyme; HDAC Class I, read-out: IC50 Inhibition, HDAC8) | IC50 [1] | IC50 [2] | IC50 (HDAC6; HDAC Class IIb, read-out: IC50 Inhibition, HDAC6) | accumulation of acetylated histones in the brain [3] | crossing of the blood-brain barrier [3] | IC50 (HDAC6)
1 | CCCCCC[C@@H](CCC)C(=O)O [Arundic acid, (2R)-2-propyloctanoic acid] | > 50 µM | > 50 µM | ≤ 5 fold | 31 µM | 10 µM | 36 µM | > 50 µM | – | – | –
2 | O=C(CCCCCCC(=O)Nc1ccccc1)NO [SAHA, suberoylanilide hydroxamic acid] | – | – | – | – | – | – | – | cause accumulation of acetylated histones in the brain | cross the blood-brain barrier | –
3 | CCCC(CCC)C(=O)O [Valproic acid, 2-propylpentanoic acid] | – | > 25 µM | – | – | – | – | – | – | – | > 5000 µM

From patent publication US20090325862A1, “Histone Deacetylase Inhibitors for the Treatment of Neurodegeneration” (priority 2006, published 2009)
